Measurements: ChEMBL document CHEMBL4334438, “Discovery of novel glycogen synthase kinase-3α inhibitors: Structure-based virtual screening, preliminary SAR and biological evaluation for treatment of acute myeloid leukemia” (Eur J Med Chem, 2019)
The source made the active and inactive calls. The calls are words filed in the database; no cut-off is given here.

Tests used:
[1] = Activation of wnt/beta-catenin signalling pathway in human NB4 cells assessed as stabilization of beta-catenin at 1 to 30 uM after 24 hrs by Western blot analysis; type: cell-based
NB-4 [2] = assay: Induction of monocytic differentiation in human NB4 cells assessed as increase in CD11c-APC positive cells at 30 uM after 6 days by flow cytometry analysis; type: functional, cell-based
[3] = target: Serine/threonine-protein kinase WNK4 (Homo sapiens) (UniProt Q96J92); assay: Inhibition of human WNK4 assessed as residual activity at 1 uM using myelin basic protein as substrate measured after 120 mins in presence of [gamma33P]ATP by scintillation counting method relative to control
NB-4 [4] = assay: Induction of monocytic differentiation in human NB4 cells assessed as increase in CD11b-APC-Cy7 positive cells at 30 uM after 6 days by flow cytometry analysis; type: functional, cell-based
[5] = target: Casein kinase I isoform alpha (Homo sapiens) (UniProt P48729); assay: Inhibition of recombinant human CK1alpha expressed in Escherichia coli assessed as residual activity at 1 uMu sing CK1 peptide as substrate preincubated for 15 mins followed by substrate addition and measured after 30 mins in presence of [gamma-33ATP] by scintillation counting method relative to control; conditions: 1 uM
[6] = system: Serine/threonine-protein kinase 38 (NDR1); assay: Inhibition of recombinant human NDR1 assessed as residual activity at 1 uM relative to control
[7] = target: AP2-associated protein kinase 1 (Homo sapiens) (UniProt Q2M2I8); assay: Inhibition of human AAK1 assessed as residual activity at 1 uM using peptide as substrate incubated for 120 mins in presence of [gamma-33ATP] by scintillation counting based radiometry assay relative to control
HL-60 = assay: Induction of monocytic differentiation in human HL60 cells assessed as increase in CD14-FITC positive cells at 30 uM after 6 days by flow cytometry analysis; type: functional, cell-based
Homo sapiens = species: Homo sapiens; assay: Selectivity index, ratio of IC50 for inhibition of human GSK-3beta H350L mutant (2 to end residues) to IC50 for inhibition of human GSK-3alpha S449A mutant (2 to end residues)
NB-4 [8] = assay: Induction of cell death in human NB4 cells at 10 to 30 uM after 6 days by trypan blue assay; type: cell-based; conditions: nb-4, 144 h
[9] = target: BMP-2-inducible protein kinase (Homo sapiens) (UniProt Q9NSY1); assay: Inhibition of recombinant human BIKe assessed as residual activity at 1 uM using peptide as substrate incubated for 120 mins in presence of [gamma-33ATP] by scintillation counting based radiometry assay relative to control
Chain of BMP-2-inducible protein kinase (Homo sapiens) (Q9NSY1 whole entry, looked up): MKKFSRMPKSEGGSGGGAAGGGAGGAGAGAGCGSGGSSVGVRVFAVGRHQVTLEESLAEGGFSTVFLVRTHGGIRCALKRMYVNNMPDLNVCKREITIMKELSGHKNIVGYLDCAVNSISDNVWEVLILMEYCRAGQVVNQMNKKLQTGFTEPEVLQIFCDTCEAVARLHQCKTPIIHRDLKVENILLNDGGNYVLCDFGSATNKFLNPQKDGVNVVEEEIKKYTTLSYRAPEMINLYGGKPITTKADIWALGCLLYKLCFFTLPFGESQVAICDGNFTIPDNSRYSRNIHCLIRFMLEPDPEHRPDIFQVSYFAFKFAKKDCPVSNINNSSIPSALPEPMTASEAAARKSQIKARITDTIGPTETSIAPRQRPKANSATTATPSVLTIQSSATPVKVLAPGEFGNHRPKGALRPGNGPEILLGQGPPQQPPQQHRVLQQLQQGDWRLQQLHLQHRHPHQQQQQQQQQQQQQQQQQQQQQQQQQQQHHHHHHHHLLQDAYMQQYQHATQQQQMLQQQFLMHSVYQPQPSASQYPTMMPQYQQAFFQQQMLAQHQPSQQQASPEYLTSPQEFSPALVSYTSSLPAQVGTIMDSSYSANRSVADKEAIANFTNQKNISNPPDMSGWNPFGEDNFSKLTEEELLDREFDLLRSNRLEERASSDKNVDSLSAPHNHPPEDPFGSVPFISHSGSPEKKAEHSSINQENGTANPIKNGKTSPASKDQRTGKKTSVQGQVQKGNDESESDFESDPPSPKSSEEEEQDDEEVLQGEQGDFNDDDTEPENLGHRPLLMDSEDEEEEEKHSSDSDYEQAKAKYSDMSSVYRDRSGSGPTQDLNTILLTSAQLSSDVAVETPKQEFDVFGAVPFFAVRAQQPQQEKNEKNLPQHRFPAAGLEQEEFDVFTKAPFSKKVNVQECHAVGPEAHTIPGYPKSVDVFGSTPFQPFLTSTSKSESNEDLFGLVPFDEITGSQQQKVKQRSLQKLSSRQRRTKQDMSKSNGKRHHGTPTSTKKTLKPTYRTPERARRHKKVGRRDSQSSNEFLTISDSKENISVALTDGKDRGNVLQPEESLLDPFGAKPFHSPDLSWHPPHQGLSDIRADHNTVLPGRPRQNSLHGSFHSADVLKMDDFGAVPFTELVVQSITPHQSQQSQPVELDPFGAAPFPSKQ

Chain of AP2-associated protein kinase 1 (Homo sapiens) (Q2M2I8 whole entry, looked up): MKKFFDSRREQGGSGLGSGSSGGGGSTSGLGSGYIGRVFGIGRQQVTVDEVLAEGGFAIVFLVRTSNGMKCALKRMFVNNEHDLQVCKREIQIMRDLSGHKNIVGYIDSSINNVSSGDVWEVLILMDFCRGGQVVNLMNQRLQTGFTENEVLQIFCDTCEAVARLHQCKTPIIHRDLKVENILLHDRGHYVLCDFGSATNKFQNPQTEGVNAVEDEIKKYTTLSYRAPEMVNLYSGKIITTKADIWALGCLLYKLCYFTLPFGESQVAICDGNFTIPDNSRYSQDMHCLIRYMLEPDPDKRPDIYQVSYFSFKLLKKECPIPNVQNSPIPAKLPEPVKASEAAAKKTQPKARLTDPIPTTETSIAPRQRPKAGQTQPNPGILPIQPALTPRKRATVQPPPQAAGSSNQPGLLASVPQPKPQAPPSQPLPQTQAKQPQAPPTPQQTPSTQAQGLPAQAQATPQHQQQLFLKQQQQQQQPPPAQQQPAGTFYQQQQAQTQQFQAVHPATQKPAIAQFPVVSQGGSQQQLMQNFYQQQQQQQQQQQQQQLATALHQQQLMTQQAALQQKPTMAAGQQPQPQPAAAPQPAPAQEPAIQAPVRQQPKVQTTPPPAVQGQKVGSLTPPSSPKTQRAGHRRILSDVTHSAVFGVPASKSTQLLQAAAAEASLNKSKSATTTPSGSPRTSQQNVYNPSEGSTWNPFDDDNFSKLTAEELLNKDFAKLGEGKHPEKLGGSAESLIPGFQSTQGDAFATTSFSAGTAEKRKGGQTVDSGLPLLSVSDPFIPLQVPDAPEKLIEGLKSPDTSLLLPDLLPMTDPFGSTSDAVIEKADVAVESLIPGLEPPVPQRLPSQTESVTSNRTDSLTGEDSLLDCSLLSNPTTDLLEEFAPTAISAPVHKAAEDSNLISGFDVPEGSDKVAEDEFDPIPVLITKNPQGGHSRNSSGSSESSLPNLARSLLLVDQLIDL
Chain of Casein kinase I isoform alpha (Homo sapiens) (P48729 2-337 limits assumed): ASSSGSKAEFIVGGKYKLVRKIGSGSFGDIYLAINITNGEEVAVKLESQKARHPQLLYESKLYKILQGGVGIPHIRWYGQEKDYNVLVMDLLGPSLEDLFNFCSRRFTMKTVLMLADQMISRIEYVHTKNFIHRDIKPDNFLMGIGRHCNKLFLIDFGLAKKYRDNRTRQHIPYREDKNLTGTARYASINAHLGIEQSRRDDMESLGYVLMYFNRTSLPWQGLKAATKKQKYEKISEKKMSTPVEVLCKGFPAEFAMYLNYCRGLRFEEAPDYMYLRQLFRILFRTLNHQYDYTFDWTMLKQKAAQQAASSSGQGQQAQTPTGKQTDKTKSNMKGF
Chain of Serine/threonine-protein kinase WNK4 (Homo sapiens) (Q96J92 whole entry): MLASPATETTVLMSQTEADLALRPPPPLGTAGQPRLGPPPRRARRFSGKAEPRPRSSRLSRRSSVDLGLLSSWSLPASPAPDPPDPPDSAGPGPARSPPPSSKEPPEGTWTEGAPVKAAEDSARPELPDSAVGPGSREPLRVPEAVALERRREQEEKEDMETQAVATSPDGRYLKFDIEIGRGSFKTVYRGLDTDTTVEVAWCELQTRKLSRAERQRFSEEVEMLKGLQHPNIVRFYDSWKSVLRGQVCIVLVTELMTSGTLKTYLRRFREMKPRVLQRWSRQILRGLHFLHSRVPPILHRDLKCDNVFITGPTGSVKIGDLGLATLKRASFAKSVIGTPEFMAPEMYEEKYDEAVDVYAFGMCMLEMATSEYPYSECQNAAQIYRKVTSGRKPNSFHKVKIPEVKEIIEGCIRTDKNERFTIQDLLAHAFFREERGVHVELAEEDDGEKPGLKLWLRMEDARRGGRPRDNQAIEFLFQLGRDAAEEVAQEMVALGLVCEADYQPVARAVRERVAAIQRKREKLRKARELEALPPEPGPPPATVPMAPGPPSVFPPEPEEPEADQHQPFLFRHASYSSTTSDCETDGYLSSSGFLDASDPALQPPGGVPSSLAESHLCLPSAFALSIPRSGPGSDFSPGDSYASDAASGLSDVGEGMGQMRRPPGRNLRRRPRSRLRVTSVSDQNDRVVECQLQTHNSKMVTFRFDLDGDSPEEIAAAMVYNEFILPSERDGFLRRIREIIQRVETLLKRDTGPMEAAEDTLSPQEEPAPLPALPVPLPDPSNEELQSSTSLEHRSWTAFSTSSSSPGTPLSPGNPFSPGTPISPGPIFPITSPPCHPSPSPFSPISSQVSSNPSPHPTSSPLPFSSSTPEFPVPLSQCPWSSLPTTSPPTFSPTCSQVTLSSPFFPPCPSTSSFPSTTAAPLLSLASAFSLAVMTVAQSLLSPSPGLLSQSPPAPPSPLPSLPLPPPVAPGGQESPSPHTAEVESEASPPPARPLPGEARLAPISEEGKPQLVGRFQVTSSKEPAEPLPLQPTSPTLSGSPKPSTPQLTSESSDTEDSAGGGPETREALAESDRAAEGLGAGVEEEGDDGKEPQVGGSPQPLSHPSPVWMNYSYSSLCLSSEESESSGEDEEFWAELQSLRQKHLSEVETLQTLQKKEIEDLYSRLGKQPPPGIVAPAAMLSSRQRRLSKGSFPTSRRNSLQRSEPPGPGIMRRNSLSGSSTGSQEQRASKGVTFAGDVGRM

C=CCOC(=O)c1cc(-c2ccc(/C=C3/NC(=S)NC3=O)o2)ccc1Cl
Activity [1]: Not Active
Activity (NB-4 [2]): Active
Activity [3]: 93%
Activity (NB-4 [4]): Active
Activity [5]: 96%
Activity [6]: 99%
Activity [7]: 101%
Activity (HL-60): Active
Ratio IC50 (Homo sapiens): 6.6
Activity (NB-4 [8]): Non-Toxic
Activity [9]: 111%
